Structures are written as SMILES. Like-named read-outs stand apart in the source and are kept apart here.

The values that follow come from patent publication US11858909B2, “Deuterated etoricoxib, methods of manufacture, and use thereof” (Tremeau Pharmaceuticals, Inc., priority 2021, dated 2024).

For data set [1], the target named is T1, CYP3A4 (Homo sapiens, UniProt P08684). As to the kind of experiment: Metabolic stability in CYP3A4 incubations (formation of methylhydroxy metabolites). Type of data set: in vitro ADME. Set-up: purchased Corning 456202. The conditions noted are these: for Formation of methylhydroxy metabolite relative to M1 formed from etoricoxib: human recombinant CYP3A4, over time (to 40 min), 1 μM; for Susceptibility to metabolism by CYP3A4 compared with non-isotopically enriched etoricoxib: human recombinant CYP3A4 incubations. The method, then: The metabolic stability of non-isotopically enriched etoricoxib, d3-etoricoxib, and an alternate deuterated form of etoricoxib, d4-etoricoxib (5-chloro-6′-methyl-3-(4-(methylsulfonyl)phenyl-2,3,5,6-d4)-2,3′-bipyridine, CAS No.: 1131345-14-6), in CYP3A4 incubations was evaluated. d4-Etoricoxib has the chemical structure:
Human recombinant CYP3A4 (Corning, item #456202, lot #9322001) was chosen for the assay conditions as CYP3A4 is the principle enzyme responsible for the metabolism of etoricoxib in humans. Formation of the methylhydroxy metabolites formed from etoricoxib, d3-etoricoxib, and d4-etoricoxib was monitored over time (Table 5, FIGS. 13 and 14).

Data set [2] in a line: Single dose crossover pharmacokinetic study in dogs. Type of data set: in vivo. The conditions noted are these: for AUC / Cmax: male, dog, plasma, po, single oral (gavage) dose, d3-etoricoxib 2.00 mg/kg, etoricoxib 1.98 mg/kg. The method, then:
A single dose crossover study was conducted to compare the pharmacokinetics of d3-etoricoxib and non-isotopically enriched etoricoxib in dogs. Four male dogs were dosed, and animals received each of the following treatments sequentially, with a minimum of four days washout between doses.
Blood samples were taken at 0.083, 0.25, 0.5, 1, 2, 4, 6, 8, 12, and 24 hours post-dose. Plasma was analyzed for d3-etoricoxib or non-isotopically enriched etoricoxib concentration.

For data set [3] the following is noted: humans; cited from earlier work.
For data set [4], the target named is T1, CYP3A4. The conditions noted are these: humans; cited from earlier work.
Data set [5] deals with CYPs 1A2, 2C9, 2C19 and 2D6. The conditions noted are these: humans; cited from earlier work.
For the next data set, the system named is human liver microsomes. Nature of the data set: Metabolic stability with human liver microsomes (formation of M1 / d2-M1 metabolite). Type of data set: in vitro ADME. The conditions noted are these: human liver microsomes 0.5 mg/mL, 1 μM, over 60 minutes, NADPH and UDPGA. As to the method:
The metabolic stability of non-isotopically enriched etoricoxib and d3-etoricoxib, with human liver microsomes was evaluated.
Etoricoxib is extensively metabolized in humans with <1% of a dose recovered in urine as the parent drug. The primary pathway for metabolism of etoricoxib in humans is through the production of the methylhydroxy metabolite of etoricoxib (“M1”). Metabolism of etoricoxib involves conversion primarily to the “M1” derivative, mainly (ca. 60%) by CYP3A4, with less contribution by CYPs 1A2, 2C9, 2C19 and 2D6 (ca. 40% collectively). See, e.g., Arcoxia® (etoricoxib) Australian Product Information, available at http://apps.medicines.org.au/files/mkparcox.pdf (last visited Apr. 9, 2021), the contents of which are herein incorporated by reference in their entirety. Production of the “M1” metabolite and d3-etoricoxib (“d2-M1”) was evaluated in this experiment throughout the incubation period.
A general note: Microsomes from liver hold many membrane-bound enzymes, among them those of drug oxidation.

The mark [6] stands for this setting: Animal 1001, male dog, read-out: AUC0.5-24 h.
Where [7] appears, read: Animal 1001, male dog, read-out: Cmax.
The mark [8] stands for this setting: Animal 1002, male dog, read-out: AUC0.5-24 h.
The mark [9] stands for this setting: Animal 1002, male dog, read-out: Cmax.
Where [10] appears, read: Animal 1003, male dog, read-out: AUC0.5-24 h.
[11] abbreviates: Animal 1003, male dog, read-out: Cmax.
The mark [12] stands for this setting: Animal 1004, male dog, read-out: AUC0.5-24 h.
Setting [13] is: Animal 1004, male dog, read-out: Cmax.
[14] abbreviates: Mean (SD) of four male dogs, read-out: AUC0.5-24 h, Mean (SD).
Setting [15] is: Mean (SD) of four male dogs, read-out: Cmax, Mean (SD).
Setting [16] is: equivalent oral doses, four male dogs.
[17] abbreviates: four male dogs, oral (gavage), 2.00 vs 1.98 mg/kg.

T1 sequence (P08684 whole entry): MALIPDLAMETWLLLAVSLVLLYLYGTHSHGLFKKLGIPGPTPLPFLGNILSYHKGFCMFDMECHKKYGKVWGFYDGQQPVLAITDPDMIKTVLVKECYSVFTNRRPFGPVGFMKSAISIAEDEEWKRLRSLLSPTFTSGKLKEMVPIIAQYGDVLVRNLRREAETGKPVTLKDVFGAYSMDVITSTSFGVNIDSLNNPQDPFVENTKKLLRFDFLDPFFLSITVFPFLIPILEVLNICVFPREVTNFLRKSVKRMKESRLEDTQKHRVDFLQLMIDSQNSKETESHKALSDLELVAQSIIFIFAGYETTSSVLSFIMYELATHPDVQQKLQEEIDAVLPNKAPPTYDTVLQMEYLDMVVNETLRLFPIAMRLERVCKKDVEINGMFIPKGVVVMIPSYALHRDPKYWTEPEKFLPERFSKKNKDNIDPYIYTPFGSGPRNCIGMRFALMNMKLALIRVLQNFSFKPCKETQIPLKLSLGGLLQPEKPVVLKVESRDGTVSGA

As for `[2H]c1c([2H])c(S(C)(=O)=O)c([2H])c([2H])c1-c1cc(Cl)cnc1-c1ccc(C)nc1` [d4-etoricoxib, 5-chloro-6′-methyl-3-(4-(methylsulfonyl)phenyl-2,3,5,6-d4)-2,3′-bipyridine, reference compound], at CYP3A4 [1], the “Formation of methylhydroxy metabolite relative to M1 formed from etoricoxib” value is on record as “similar” and the “Susceptibility to metabolism by CYP3A4 compared with non-isotopically enriched etoricoxib” value was “almost identical”.

What is called Cmax is the peak of the concentration-time curve. With `Cc1ccc(-c2ncc(Cl)cc2-c2ccc(S(C)(=O)=O)cc2)cn1` [etoricoxib], the AUC in data set [2] (setting [6]) came out at 342 ng·h/mL; in data set [2] (setting [8]) it was 606 ng·h/mL; in data set [2] (setting [10]), 1130 ng·h/mL; in data set [2] (setting [12]) it was 336 ng·h/mL; in data set [2] (setting [14]), 582 ng·h/mL. In addition, the Cmax in data set [2] (setting [7]) is 259 ng/mL; in data set [2] (setting [9]), 426 ng/mL; in data set [2] (setting [11]) it was 670 ng/mL; in data set [2] (setting [13]), 206 ng/mL; in data set [2] (setting [15]) it was 390 ng/mL. For the same compound, the “Dose recovered in urine as the parent drug” value in data set [3] is under 1%. In addition, the “Share of conversion to the M1 derivative by CYP3A4” value at CYP3A4 [4] is recorded as “ca. 60%”. Also, the “Share of conversion to the M1 derivative by CYPs 1A2, 2C9, 2C19 and 2D6 collectively” value in data set [5] is on record as “ca. 40%”.

Take `[2H]C([2H])([2H])c1ccc(-c2ncc(Cl)cc2-c2ccc(S(C)(=O)=O)cc2)cn1` [d3-etoricoxib, 5-chloro-6′-(methyl-d3)-3-(4-(methylsulfonyl)phenyl)-2,3′-bipyridine]: the “Cmax relative to non-isotopically enriched etoricoxib” value in data set [2] (setting [16]) is on record as “higher Cmax”. For the same compound, the “Metabolism in dogs relative to non-isotopically enriched etoricoxib” value in data set [2] (setting [16]) was “substantially resistant to metabolism”. Further, the “Total exposure (AUC) relative to non-isotopically enriched etoricoxib” value in data set [2] (setting [16]) was “higher total exposure”. Moreover, in data set [2] (setting [17]), the “AUC0.5-24 h, Average % delta d3-etoricoxib vs etoricoxib” value is given as “+48.6%”. For the same compound, the “Cmax, Average % delta d3-etoricoxib vs etoricoxib” value in data set [2] (setting [17]) is “+54.9%”. In addition, the AUC worked out at 516 ng·h/mL in data set [2] (setting [6]); 1020 ng·h/mL in data set [2] (setting [8]); 1260 ng·h/mL in data set [2] (setting [10]); 658 ng·h/mL in data set [2] (setting [12]); 865 ng·h/mL in data set [2] (setting [14]). Also, the Cmax in data set [2] (setting [7]) is 628 ng/mL; in data set [2] (setting [9]) it was 791 ng/mL; in data set [2] (setting [11]), 593 ng/mL; in data set [2] (setting [13]), 317 ng/mL; in data set [2] (setting [15]), 604 ng/mL. Moreover, the “Amount of d2-M1 metabolite formed relative to M1 formed from etoricoxib” value in the data set on human liver microsomes is recorded as “approximately three-fold less”. Also, at CYP3A4 [1], the “Formation of methylhydroxy metabolite relative to M1 formed from etoricoxib” value was “about six-fold lower”. Besides, the “Susceptibility to metabolism by CYP3A4 compared with non-isotopically enriched etoricoxib” value at CYP3A4 [1] is “substantially different”.
